# Measurements from ChEMBL document CHEMBL3259719, “Discovery and Optimization of Tetramethylpiperidinyl Benzamides as Inhibitors of EZH2” (ACS Med Chem Lett, 2014).
# Tests used:
# [1] = target: T1, Histone-lysine N-methyltransferase EZH2 (Homo sapiens, UniProt Q15910); experiment: Inhibition of wild type EZH2 (unknown origin)
# Target sequence in this assay (Q15910 whole entry): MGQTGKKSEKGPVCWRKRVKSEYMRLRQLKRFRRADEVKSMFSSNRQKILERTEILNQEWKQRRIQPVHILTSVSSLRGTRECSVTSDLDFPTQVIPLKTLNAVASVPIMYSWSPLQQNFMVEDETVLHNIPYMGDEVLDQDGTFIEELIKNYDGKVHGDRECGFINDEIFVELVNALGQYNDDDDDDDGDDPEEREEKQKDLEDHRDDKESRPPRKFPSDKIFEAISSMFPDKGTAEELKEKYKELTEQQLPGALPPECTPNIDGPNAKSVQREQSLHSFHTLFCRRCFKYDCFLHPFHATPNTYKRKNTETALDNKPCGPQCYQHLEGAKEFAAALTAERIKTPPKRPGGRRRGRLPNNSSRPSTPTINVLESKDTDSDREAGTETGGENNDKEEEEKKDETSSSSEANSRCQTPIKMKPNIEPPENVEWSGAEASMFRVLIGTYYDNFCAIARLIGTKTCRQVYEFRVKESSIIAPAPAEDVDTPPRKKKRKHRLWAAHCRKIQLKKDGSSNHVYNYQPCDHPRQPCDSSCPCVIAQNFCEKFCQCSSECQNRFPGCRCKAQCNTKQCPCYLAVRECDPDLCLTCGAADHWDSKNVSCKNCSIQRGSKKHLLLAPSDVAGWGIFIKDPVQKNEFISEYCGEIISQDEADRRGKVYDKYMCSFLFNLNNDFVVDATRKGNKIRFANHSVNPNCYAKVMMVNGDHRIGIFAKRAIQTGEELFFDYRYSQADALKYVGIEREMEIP
# [2] = target: Histone-lysine N-methyltransferase EZH2 (Homo sapiens, UniProt Q15910, Y641N); experiment: Inhibition of EZH2 Y641N mutant (unknown origin)
# [3] = target: T1, Histone-lysine N-methyltransferase EZH2; experiment: Inhibition of EZH2 in human HeLa cells assessed as reduction in H3K27me3 level; type: cell-based
# Target sequence in this assay (Q15910 whole entry, looked up): as the sequence (Q15910 whole entry) above
# [4] = Passive permeability from basolateral to apical side in human Caco2 cells; type: ADME, cell-based; details: Caco-2, read-out: permeability
# [5] = Passive permeability from apical to basolateral side in human Caco2 cells; type: ADME, cell-based; details: Caco-2, read-out: permeability
# [6] = Efflux ratio of passive permeability in human Caco2 cells; type: ADME, cell-based; details: Caco-2
# [7] = Growth inhibition of human KARPAS422 cells after 10 days by Cell-Titer luminescence assay; type: functional; details: KARPAS-422, 240 h
# [8] = Growth inhibition of human KARPAS422 cells after 17 days by Cell-Titer luminescence assay; type: functional; details: KARPAS-422, 408 h
# [9] = Growth inhibition of human KARPAS422 cells after 4 days by Cell-Titer luminescence assay; type: functional; details: KARPAS-422, 96 h
# [10] = Growth inhibition of human KARPAS422 cells after 14 days by Cell-Titer luminescence assay; type: functional; details: KARPAS-422, 336 h
# [11] = Growth inhibition of human KARPAS422 cells after 7 days by Cell-Titer luminescence assay; type: functional; details: KARPAS-422, 168 h
# Sequence of Histone-lysine N-methyltransferase EZH2 (Homo sapiens, UniProt Q15910, Y641N) (Q15910 whole entry Y641N): as the sequence (Q15910 whole entry) above, with Y641N counted along it
Compound,IC50 [1],further results
CC1(C)CC(NC(=O)c2ccc(Oc3ccccc3C#N)c(Cl)c2)C(F)(F)C(C)(C)N1 (stereo unspecified),> 80 µM,IC50 [2]: > 80 µM
COc1ccccc1Oc1ccc(C(=O)NC2CC(C)(C)NC(C)(C)C2)cc1,59 µM,
CC1(C)CC(NC(=O)c2ccc(C3(c4ccccc4)CC3)cc2)CC(C)(C)N1,> 80 µM,
CC1(C)CC(NC(=O)c2ccc(C(=O)c3ccccc3)cc2)CC(C)(C)N1,57 µM,
CN(c1ccccc1)c1ccc(C(=O)NC2CC(C)(C)NC(C)(C)C2)cc1,> 80 µM,
Cc1cc(C(=O)NC2CC(C)(C)NC(C)(C)C2)cc(C)c1Oc1ccccc1C#N,51 µM,
CC1(C)CC(NC(=O)c2ccc([S+]([O-])c3ccccc3)cc2)CC(C)(C)N1 (stereo unspecified),> 80 µM,
CC1(C)CC(NC(=O)c2ccc(C(O)c3ccccc3)cc2)CC(C)(C)N1 (stereo unspecified),> 80 µM,
CC1(C)CC(NC(=O)c2ccc(S(=O)(=O)c3ccccc3)cc2)CC(C)(C)N1,> 80 µM,
Cc1ccc(Oc2ccc(C(=O)NC3CC(C)(C)NC(C)(C)C3)cc2)cc1,> 80 µM,
Cc1cccc(Oc2ccc(C(=O)NC3CC(C)(C)NC(C)(C)C3)cc2)c1,61 µM,
CC1(C)CC(NC(=O)c2ccc(COc3ccccc3)cc2)CC(C)(C)N1,48 µM,
CC(c1ccccc1)c1ccc(C(=O)NC2CC(C)(C)NC(C)(C)C2)cc1 (stereo unspecified),> 80 µM,
COc1cc(Oc2ccccc2C#N)ccc1C(=O)NC1CC(C)(C)NC(C)(C)C1,> 80 µM,
CC1(C)CC(NC(=O)c2ccc(Cc3ccccc3)cc2)CC(C)(C)N1,> 80 µM,
CC1(C)CC(NC(=O)c2ccc(Oc3cccc(-c4ccnnc4)c3C#N)c(Cl)c2)CC(C)(C)N1,,Activity [3]: 7 µM; Papp B→A [4]: 3.29 ×10⁻⁶ cm/s; GI50 [7]: 23 µM; GI50 [8]: 9.1 µM; GI50 [9]: 70 µM; Papp A→B [5]: 0.19 ×10⁻⁶ cm/s; GI50 [10]: 13.2 µM; GI50 [11]: 24.8 µM
CC1(C)CC(NC(=O)c2ccc(Oc3ccccc3)cc2)CC(C)(C)N1,51 µM,
CC1(C)CC(NC(=O)c2ccc(Nc3ccccc3)cc2)CC(C)(C)N1,> 80 µM,
CC1(C)CC(NC(=O)c2ccc(OCc3ccccc3)cc2)CC(C)(C)N1,> 80 µM,

# The remaining compounds from weak to strong by IC50 [1], led by results:
IC50 [1],Compound,further results
48 µM,Cc1ccccc1Oc1ccc(C(=O)NC2CC(C)(C)NC(C)(C)C2)cc1,
37 µM,CC1(C)CC(NC(=O)c2ccc(Oc3ccccc3C#N)cc2Cl)CC(C)(C)N1,
33 µM,CC1(C)CC(NC(=O)c2ccc(Sc3ccccc3)cc2)CC(C)(C)N1,
29 µM,CC1(C)CC(NC(=O)c2ccc(Oc3ccccc3Cl)cc2)CC(C)(C)N1,
19 µM,C#Cc1ccccc1Oc1ccc(C(=O)NC2CC(C)(C)NC(C)(C)C2)cc1,
15 µM,CC1(C)CC(NC(=O)c2ccc(Oc3ccccc3C#N)cc2F)CC(C)(C)N1,
7.9 µM,CC1(C)CC(NC(=O)c2ccc(Oc3ccccc3C(C)(C)C)cc2)CC(C)(C)N1,
4.9 µM,CC1(C)CC(NC(=O)c2ccc(Oc3ccccc3C#N)c(Cl)c2)CC(C)(C)N1CCO,IC50 [2]: 62 µM
3.6 µM,CC1(C)CC(NC(=O)c2ccc(Oc3ccccc3OCc3ccccc3)cc2)CC(C)(C)N1,
3.4 µM,CC1(C)CC(NC(=O)c2ccc(Oc3ccccc3C#N)cc2)CC(C)(C)N1,
2.1 µM,CC1CC(NC(=O)c2ccc(Oc3cccc(-c4ccnnc4)c3C#N)c(Cl)c2)CC(C)N1 (stereo unspecified),IC50 [2]: 10 µM
1.5 µM,CC1(C)CC(NC(=O)c2ccc(Oc3cccc(-c4ccnnc4)c3C#N)c(Cl)c2)CC(C)(C)O1,Papp B→A [4]: 24.8 ×10⁻⁶ cm/s; Papp A→B [5]: 21.9 ×10⁻⁶ cm/s; IC50 [2]: 66 µM; efflux ratio [6]: 1.1
1 µM,CC1(C)CC(NC(=O)c2ccc(Oc3ccccc3C#N)c(F)c2)CC(C)(C)N1,
1 µM,CC1(C)CC(NC(=O)c2cc(F)c(Oc3ccccc3C#N)c(Br)c2)CC(C)(C)N1,
0.93 µM,CC1(C)CC(NC(=O)c2ccc(Oc3ccccc3C#N)c(C#N)c2)CC(C)(C)N1,
0.92 µM,Cc1cc(C(=O)NC2CC(C)(C)NC(C)(C)C2)ccc1Oc1ccccc1C#N,
0.871 µM,CC1CC(NC(=O)c2ccc(Oc3cccc(-c4ccnnc4)c3C#N)c(Cl)c2)CC(C)(C)N1 (stereo unspecified),IC50 [2]: 10 µM
0.84 µM,CC1(C)CC(NC(=O)c2ccc(Oc3ccccc3C#N)c3ccccc23)CC(C)(C)N1,
0.5 µM,CC1(C)CC(NC(=O)c2ccc(Oc3ccccc3C#N)c(C3CC3)c2)CC(C)(C)N1,
0.45 µM,CC1(C)CC(NC(=O)c2ccc(Oc3ccccc3C#N)c(Cl)c2)CC(C)(C)N1,
0.32 µM,CC1(C)CC(NC(=O)c2ccc(Oc3ccccc3C#N)c(Br)c2)CC(C)(C)N1,
0.23 µM,CC1(C)CC(NC(=O)c2ccc(Oc3cccc(-c4cn[nH]c4)c3C#N)c(Cl)c2)CC(C)(C)N1,IC50 [2]: 4 µM
0.189 µM,CC1(C)CC(COc2ccc(Oc3cccc(-c4ccncn4)c3C#N)c(Cl)c2)CC(C)(C)N1,Activity [3]: > 15 µM; Papp B→A [4]: 2.1 ×10⁻⁶ cm/s; Papp A→B [5]: 0.5 ×10⁻⁶ cm/s; IC50 [2]: 2 µM; efflux ratio [6]: 4.4
0.172 µM,CC1(C)CC(OC(=O)c2ccc(Oc3cccc(-c4ccnnc4)c3C#N)c(Cl)c2)CC(C)(C)N1,Papp B→A [4]: 47.7 ×10⁻⁶ cm/s; Papp A→B [5]: 20.4 ×10⁻⁶ cm/s; IC50 [2]: 2.5 µM; efflux ratio [6]: 2.3
0.14 µM,CC1(C)CC(NC(=O)c2ccc(Oc3cccc(Cl)c3C#N)c(Cl)c2)CC(C)(C)N1,IC50 [2]: 2.2 µM
0.14 µM,Cc1cccc(Oc2ccc(C(=O)NC3CC(C)(C)NC(C)(C)C3)cc2Cl)c1C#N,IC50 [2]: 1.4 µM
0.081 µM,CC1(C)CC(NC(=O)c2ccc(Oc3cccc(-c4ccncc4)c3C#N)c(Cl)c2)CC(C)(C)N1,IC50 [2]: 0.56 µM
0.024 µM,CC1(C)CC(NC(=O)c2ccc(Oc3cccc(-c4ccncn4)c3C#N)c(Cl)c2)CC(C)(C)N1,IC50 [2]: 0.13 µM
